Measured values from US7078403B1, “Antiviral agents” (Biota Scientific Management Pty Ltd., priority 1999, dated 2006).

How the values were obtained:
HRV type 1A = assay: Inhibition of viral cytopathic effect (CPE), visual scoring or neutral red, HRV type 1A in MRC-5 cells; assay type: cell-based, human rhinovirus; settings: for Activity on Rhinovirus Type 1A EC50: HRV type 1A in MRC-5 cells, CPE inhibition; for Activity on Rhinovirus Type 1A SI: selectivity index = CC50 or MTC divided by EC50, HRV type 1A, MRC-5 cells
[1] = tested on: human embryo lung (MRC-5) cells; assay: Cytotoxicity (CC50 or MTC) in uninfected MRC-5 cells; settings: unit not given

| SMILES | Activity on Rhinovirus Type 1A EC50 (HRV type 1A) [µg/mL] | Activity on Rhinovirus Type 1A SI (HRV type 1A) | Activity on Rhinovirus Type 1A MTC [1] |
| --- | --- | --- | --- |
| C=CCON=Cc1ccc(OCC2CCN(c3ccc(Cl)nn3)CC2)cc1 [Compound 30] | 0.036 | >28 | >1 |
| CON=Cc1cc(O)cc(OCCC2CCN(c3ccc(Cl)nn3)CC2)c1 [Compound 38] | 0.69 | >1.45 | >1 |
| CCON=Cc1cccc(OCCC2CCN(c3ccc(C)nn3)CC2)c1 [Compound 46] | 0.062 | >16.0 | >1 |
| C=CCON=Cc1cccc(OCCC2CCN(c3ccc(C)nn3)CC2)c1 [Compound 47] | 0.066 | >15 | >1 |
| CON=Cc1cccc(OCCC2CCN(c3ccc(C)nn3)CC2)c1 [Compound 48] | 0.016 | >62 | >1 |
| CCON=Cc1ccc(OCCC2CCN(c3cccnn3)CC2)cc1 [Compound 49] | 0.056 | >17.8 | >1 |
| CCO/N=C/c1ccc(OCCC2CCN(c3ccc(Cl)nn3)CC2)cc1OC [Compound 50] | 0.008 | >121.7 | >1 |
| C=CCON=Cc1ccc(OCCC2CCN(c3ccc(C)nn3)CC2)c(C)c1 [Compound 53] | <0.003 | >208 | 0.667 |
| CCCON=Cc1ccc(OCCC2CCN(c3ccc(C)nn3)CC2)c(C)c1 [Compound 54] | 0.007 | 91 | 0.663 |
| CCON=Cc1ccc(OC2CCN(c3ccc(Cl)nn3)CC2)cc1 [Compound 55] | 2.68 | >3 | >10 |
| CCON=Cc1ccc(OCCC2CCN(c3ccc(-c4ccccc4)nn3)CC2)cc1 [Compound 56] | 2.31 | >3 | >10 |
| CCON=Cc1ccc(OCCC2CCN(c3ccc(C(F)(F)F)nn3)CC2)cc1 [Compound 58] | 0.498 | >2 | >1 |
| Cc1ccc(N2CCC(CCOc3ccc(C=NOCC(F)(F)F)cc3)CC2)nn1 [Compound 59] | 0.162 | 3.4 | 0.56 |
| CON=Cc1cccc(OCC2CCN(c3ccc(Cl)nn3)CC2)c1 [Compound 60] | 0.183 | >17 | >1 |
| CCON=Cc1cccc(OCC2CCN(c3ccc(Cl)nn3)CC2)c1 [Compound 61] | 0.058 | >14 | >1 |
| C=CCON=Cc1cccc(OCC2CCN(c3ccc(Cl)nn3)CC2)c1 [Compound 62] | 0.067 | >14 | >1 |
| C=CCON=Cc1ccc(OCCC2CCN(c3ccc(OC)nn3)CC2)cc1 [Compound 63] | 0.06 | >15 | >1 |
| CCON=Cc1ccc(OCCN2CCN(c3cccnn3)CC2)cc1 [Compound 64] | 0.05 | >17 | >1 |
| CCON=Cc1cccc(OCCN2CCN(c3cccnn3)CC2)c1 [Compound 65] | 0.21 | >4.5 | >1 |
| C=CCON=Cc1ccc(OCCN2CCN(c3cccnn3)CC2)cc1 [Compound 66] | 0.05 | >18 | >1 |
| CON=Cc1ccc(OCCN2CCN(c3ccc(C)nn3)CC2)cc1 [Compound 67] | 0.04 | >20 | >1 |
| CCON=Cc1ccc(OCCN2CCN(c3ccc(C)nn3)CC2)cc1 [Compound 68] | 0.04 | >25 | >1 |
| C=CCON=Cc1ccc(OCCN2CCN(c3ccc(C)nn3)CC2)cc1 [Compound 69] | 0.18 | >5 | >1 |
| CON=Cc1cccc(OCCN2CCN(c3ccc(C)nn3)CC2)c1 [Compound 70] | 0.05 | >16 | >1 |

| SMILES | Activity on Rhinovirus Type 1A EC50 (HRV type 1A) [µg/mL] | Activity on Rhinovirus Type 1A SI (HRV type 1A) | Activity on Rhinovirus Type 1A MTC [1] |
| --- | --- | --- | --- |
| CCON=Cc1cccc(OCCN2CCN(c3ccc(C)nn3)CC2)c1 [Compound 71] | 0.05 | >18 | >1 |
| C=CCON=Cc1cccc(OCCN2CCN(c3ccc(C)nn3)CC2)c1 [Compound 72] | 0.16 | >6 | >1 |
| CON=Cc1ccc(OCCN2CCN(c3ccc(Cl)nn3)CC2)cc1 [Compound 73] | 0.003 | >312 | >1 |
| C=CCON=Cc1ccc(OCCN2CCN(c3ccc(Cl)nn3)CC2)cc1 [Compound 74] | 0.02 | >46 | >1 |
| CON=Cc1cccc(OCCN2CCN(c3ccc(Cl)nn3)CC2)c1 [Compound 75] | 0.01 | >98 | >1 |
| CCON=Cc1cccc(OCCN2CCN(c3ccc(Cl)nn3)CC2)c1 [Compound 76] | 0.01 | >98 | >1 |
| C=CCON=Cc1cccc(OCCN2CCN(c3ccc(Cl)nn3)CC2)c1 [Compound 77] | 0.003 | >279 | >1 |
| CCON=Cc1ccc(OCCC2CCN(c3ccc(C(F)(F)F)cn3)CC2)cc1 [Compound 84] | 0.05 | >19.6 | >1 |
| CCCON=Cc1ccc(OCCC2CCN(c3ccc(C)nn3)CC2)cc1 [Compound 85] | 0.08 | >12 | >1 |
| C=CCON=Cc1ccc(OCCC2CCN(c3ccc(C)nn3)CC2)cc1 [Compound 87] | 0.01 | >51 | >1 |
| C#CCON=Cc1ccc(OCCC2CCN(c3ccc(C)nn3)CC2)cc1 [Compound 88] | 0.005 | >172 | >1 |
| CON=Cc1ccc(OCCCC2CCN(c3ccc(Cl)nn3)CC2)cc1 [Compound 89] | 0.005 | >174 | >1 |
| CON=Cc1cccc(OCCCC2CCN(c3ccc(Cl)nn3)CC2)c1 [Compound 91] | 0.02 | >46 | >1 |
| CCON=Cc1cccc(OCCCC2CCN(c3ccc(Cl)nn3)CC2)c1 [Compound 92] | 0.20 | >5 | >1 |
| CON=Cc1ccc(OCCCC2CCN(c3ccc(C)nn3)CC2)cc1 [Compound 94] | 0.024 | >41 | >1 |
| CCON=Cc1ccc(OCCCC2CCN(c3ccc(C)nn3)CC2)cc1 [Compound 95] | 0.30 | >3 | >1 |
| CCON=Cc1cccc(OCCCC2CCN(c3ccc(C)nn3)CC2)c1 [Compound 98] | 0.255 | >3 | >1 |
| C=CCON=Cc1cccc(OCCCC2CCN(c3ccc(C)nn3)CC2)c1 [Compound 99] | 0.205 | >4 | >1 |
| CON=Cc1ccc(OCCCC2CCN(c3cccnn3)CC2)cc1 [Compound 102] | 0.059 | >17 | >1 |
| CCON=Cc1ccc(OCCCC2CCN(c3cccnn3)CC2)cc1 [Compound 103] | 0.266 | >3 | >1 |
| CON=Cc1cccc(OCCCC2CCN(c3cccnn3)CC2)c1 [Compound 105] | 0.126 | >8 | >1 |
| C=CCON=Cc1cccc(OCCCC2CCN(c3cccnn3)CC2)c1 [Compound 107] | 0.062 | >16 | >1 |
| CON=C(C)c1cc(C)c(OCCCc2cc(C)no2)c(C)c1 [Compound 109] | 0.053 | >18.8 | >1 |
| C#CCON=Cc1cc(C)c(OCCCc2cc(C)no2)c(C)c1 [Compound 119] | 0.046 | >21.4 | >1 |
